Measured values taken from article PMC10840383, “Clinical features, functional consequences, and rescue pharmacology of missense GRID1 and GRID2 human variants” (Human Molecular Genetics, 2023).
Several values for one entry are separate records, joined by “and”; a condition that tells them apart may be missing. Equal entries are not always repeated. Entries after “also recorded” stand apart in the source; their conditions may differ. Where two headings read alike, the source gives them in different places. Values belong to the compound of their own block, whether it stands above or below them.

How the values were obtained:
GluD2-T649A = molecular target: T1, GluD2-T649A (Rattus norvegicus, UniProt Q63226, T649A); test: TEVC of constitutive current, Xenopus oocytes expressing GluD2-T649A; assay type: cell-based; details: for IC50: read-out: Pentamidine IC50
T1 construct: expressed in transfected cells; host or cells: Xenopus laevis oocytes injected with cRNA
T1 sequence (Q63226 24-1007 T649A): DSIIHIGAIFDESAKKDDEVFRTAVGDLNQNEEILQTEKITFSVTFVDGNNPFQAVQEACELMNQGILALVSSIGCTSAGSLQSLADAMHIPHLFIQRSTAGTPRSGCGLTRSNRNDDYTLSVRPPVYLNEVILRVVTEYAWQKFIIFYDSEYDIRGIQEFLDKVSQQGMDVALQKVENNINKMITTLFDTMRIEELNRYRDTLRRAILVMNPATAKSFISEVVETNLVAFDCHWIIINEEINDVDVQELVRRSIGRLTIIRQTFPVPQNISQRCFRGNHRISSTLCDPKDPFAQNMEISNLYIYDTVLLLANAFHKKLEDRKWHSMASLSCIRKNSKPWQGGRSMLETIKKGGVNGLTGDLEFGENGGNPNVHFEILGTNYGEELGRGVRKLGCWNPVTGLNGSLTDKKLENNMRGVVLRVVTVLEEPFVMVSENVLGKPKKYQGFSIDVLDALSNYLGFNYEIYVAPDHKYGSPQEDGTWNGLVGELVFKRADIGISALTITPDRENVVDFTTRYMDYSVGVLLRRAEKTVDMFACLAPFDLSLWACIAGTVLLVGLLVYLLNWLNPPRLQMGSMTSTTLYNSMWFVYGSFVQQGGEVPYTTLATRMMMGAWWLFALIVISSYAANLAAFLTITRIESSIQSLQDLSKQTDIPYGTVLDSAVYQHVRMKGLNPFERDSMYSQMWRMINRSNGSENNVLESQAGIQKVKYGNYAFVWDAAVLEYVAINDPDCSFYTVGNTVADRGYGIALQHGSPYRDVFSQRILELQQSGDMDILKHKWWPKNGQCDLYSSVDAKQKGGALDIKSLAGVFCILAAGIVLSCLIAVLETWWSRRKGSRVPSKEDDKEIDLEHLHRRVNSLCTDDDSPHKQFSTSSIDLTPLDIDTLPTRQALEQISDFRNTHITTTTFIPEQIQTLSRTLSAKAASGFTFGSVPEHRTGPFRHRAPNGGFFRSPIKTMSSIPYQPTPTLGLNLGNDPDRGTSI

GluD1-A650T = molecular target: T2, GluD1-A650T (Homo sapiens, UniProt Q9ULK0, A650T); test: TEVC of constitutive current, Xenopus oocytes expressing GluD1-A650T; assay type: cell-based; details: for EC50: modulation of constitutive current
T2 construct: expressed in transfected cells; host or cells: Xenopus laevis oocytes injected with cRNA
T2 sequence (Q9ULK0 21-1009 A650T): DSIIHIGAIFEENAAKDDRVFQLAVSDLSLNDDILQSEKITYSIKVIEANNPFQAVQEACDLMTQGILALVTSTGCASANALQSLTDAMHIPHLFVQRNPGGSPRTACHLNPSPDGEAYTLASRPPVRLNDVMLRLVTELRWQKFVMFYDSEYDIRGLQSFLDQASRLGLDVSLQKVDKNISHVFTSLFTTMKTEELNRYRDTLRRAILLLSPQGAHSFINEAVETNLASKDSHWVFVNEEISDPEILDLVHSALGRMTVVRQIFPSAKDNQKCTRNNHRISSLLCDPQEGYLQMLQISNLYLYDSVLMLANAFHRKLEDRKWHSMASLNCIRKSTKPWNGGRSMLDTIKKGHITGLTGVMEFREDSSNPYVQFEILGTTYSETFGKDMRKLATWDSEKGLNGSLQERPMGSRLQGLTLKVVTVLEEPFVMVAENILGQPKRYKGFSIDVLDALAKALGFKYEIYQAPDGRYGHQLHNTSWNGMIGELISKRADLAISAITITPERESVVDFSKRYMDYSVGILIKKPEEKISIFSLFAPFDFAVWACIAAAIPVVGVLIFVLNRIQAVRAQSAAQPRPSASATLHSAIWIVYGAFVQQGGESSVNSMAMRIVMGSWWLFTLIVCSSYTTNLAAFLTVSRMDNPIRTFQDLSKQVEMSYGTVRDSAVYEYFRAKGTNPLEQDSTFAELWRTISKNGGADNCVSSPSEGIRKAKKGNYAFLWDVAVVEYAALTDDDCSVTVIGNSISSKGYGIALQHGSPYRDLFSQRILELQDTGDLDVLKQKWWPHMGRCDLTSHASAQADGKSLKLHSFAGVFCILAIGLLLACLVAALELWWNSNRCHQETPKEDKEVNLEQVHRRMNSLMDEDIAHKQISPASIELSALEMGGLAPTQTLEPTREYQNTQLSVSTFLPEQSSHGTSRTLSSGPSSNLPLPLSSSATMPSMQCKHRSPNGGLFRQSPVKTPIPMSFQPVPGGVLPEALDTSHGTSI

[1] = 100 μM pentamidine, positive = increase, negative = decrease of activity
[2] = 10 mM D-serine, positive = increase, negative = decrease of activity
[3] = percent of constitutive leak current (NMDG+/Na+ difference current)
[4] = normalized to NMDG+ − Na+ difference current

SMILES: N=C(N)c1ccc(OCCCCCOc2ccc(C(=N)N)cc2)cc1 [Pentamidine, pentamidine]
Pentamidine effect (Baseline −100 μM Pentamidine) (GluD2-T649A; [1]): −18 ± 4.8 (14) nA
Fold increase in pentamidine potency on GluD2-T649A compared to GluD2-A654T (GluD2-T649A; IC50 comparison): ~ 200 fold and > 200 fold
IC50 (GluD2-T649A; inhibition of constitutive channels): 0.037 µM
IC50 (GluD2-T649A; inhibition of constitutive current, 1 mM Ca2+): 0.036 µM
Pentamidine effect (Baseline −100 μM Pentamidine) (GluD1-A650T; [1]): −1090 ± 200 (12) nA
IC50 (GluD1-A650T; read-out: Pentamidine IC50): 20 µM

IC50 (GluD1-A650T; inhibition of constitutive current, read-out: Memantine IC50): > 300 µM
SMILES: CC12CC3CC(C)(C1)CC(N)(C3)C2 [Memantine, memantine]

D-serine Hill slope (GluD2-T649A; 1 mM Ca2+, Fig. S7B): 2.0
D-serine Maximum (GluD2-T649A; 1 mM Ca2+, Fig. S7B): 54%
D-Serine effect (Baseline −10 mM D-Serine) (GluD2-T649A; [2]): −35 ± 5.6 (14) nA
D-serine % Max (NMDG+ − Na+) Mean ± SEM (GluD2-T649A; [3]): 49 ± 2.5 (7) %
D-Serine effect (Baseline −10 mM D-Serine) (GluD1-A650T; [2]): 810 ± 130 (12) nA
D-serine % Max (NMDG+ − Na+) Mean ± SEM (GluD1-A650T; [3]): 120 ± 1.8 (11) %
EC50 (GluD1-A650T; read-out: D-serine EC50 [95% CI], potentiated by D-serine (not inhibited)): 130 µM
SMILES: N[C@H](CO)C(=O)O [D-serine]
Effect on constitutive current, in words (GluD1-A650T): modestly potentiated; also recorded: slightly potentiated

Ca2+ EC50 of the relation Ca2+ concentration vs D-serine IC50 (GluD2-T649A; Hill fit, Fig. S7A): 630 µM
Hill slope of the relation Ca2+ concentration vs D-serine IC50 (GluD2-T649A; Hill fit, Fig. S7A): 1.4
Ca2+ % Max (NMDG+ − Na+) Mean ± SEM (GluD2-T649A; [4]): 345 ± 55 (10) %
EC50 (GluD2-T649A; potentiation of constitutive current, read-out: Ca2+ EC50 [95% CI]): 290 µM
Ca2+ EC50 A654T/EC50 variant (GluD2-T649A; ratio): 0.52
EC50 (GluD2-T649A; read-out: Ca2+ potentiation EC50): 100 to 400 µM
Effect on constitutive current, in words (GluD1-A650T): modestly inhibited
EC50 (GluD1-A650T; inhibited by Ca2+ (not potentiated), read-out: Ca2+ EC50 [95% CI]): 290 µM
Ca2+ % Max (NMDG+ − Na+) Mean ± SEM (GluD1-A650T; [4]): 65 ± 3 (10) %
SMILES: [Ca+2] [Ca^2+]
